Results on 1 molecule are retold here after EP3275863A1, “COMPOUNDS FOR TREATING CONGENITAL DISORDERS OF GLYCOSYLATION” (Universidad Autónoma de Madrid, priority 2016, dated 2018).

Residue numbers refer to the chain shown, from its start.

One test deals with T1, WT-PMM2 (Homo sapiens, UniProt O15305).
T1 construct: His6 (N); made in house; host or cells: E. coli BL21 Star DE3
T1 sequence (O15305 1-246): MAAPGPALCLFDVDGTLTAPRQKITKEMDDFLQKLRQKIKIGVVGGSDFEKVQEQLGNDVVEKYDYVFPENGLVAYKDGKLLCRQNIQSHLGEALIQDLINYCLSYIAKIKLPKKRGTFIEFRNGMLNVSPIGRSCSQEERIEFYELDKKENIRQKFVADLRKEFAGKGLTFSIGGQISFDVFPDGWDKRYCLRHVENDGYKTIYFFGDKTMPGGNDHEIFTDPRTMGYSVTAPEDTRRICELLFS
Put plainly: High-throughput differential scanning fluorimetry (DSF) screening, thermal denaturation. The format is binding. To be noted: 0.08 mg/mL of compound, 4% DMSO, vs DMSO control; read-out: protein Tm is increased (ΔTm). As to the method:
10,000 molecular compounds from the MyriaScreen (Sigma-Aldrich) diversity collection were screened by determining the stabilization induced by the binding of different ligands (potential pharmacological chaperones) to the purified recombinant protein. The identification of ligands that stabilize WT-PMM2 thermally, was done by monitoring the thermal denaturation. The screening was performed by monitoring a shift in the fluorescence intensity at 610 nm using the LightCycler A480 (Roche).
PMM2 proteins were expressed in E.coli (BL21 Star™DE3 One Shot® Invitrogen). […]
Protein purification was performed using the ÄKTA Prime System (GE Healthcare, Little Chalfont, UK) at 4°C. […] The pure protein concentration was estimated by measuring the absorbance at 280 nm in a Nanodrop spectrophotometer (Thermo Scientific, Waltham, MA, USA) using the theoretical molar extinction coefficient estimated from the amino acid composition of HisPMM2 (23755 M^-1 cm^-1).
10,000 compounds of molecular weight ranging from 220 to 547 Da from the MyriaScreen diversity collection, dissolved in DMSO (Sigma Aldrich, St. Louis, MO, USA) to a final concentration of 2 mg/mL, were screened by DSF for identification of ligands that stabilize WT-PMM2 thermally. […] The experimental unfolding curves were then smoothed, normalized, and analyzed using in-house software. […]

The next test deals with T2, p.Asp65Tyr (Homo sapiens, UniProt O15305, D65Y).
T2 construct: His6 (N); made in house; host or cells: RTS 100 E. coli HY cell-free transcription-translation system
T2 sequence (O15305 1-246 D65Y): T1 sequence (O15305 1-246) with D65Y
Put plainly: Degradation time course (half-life) in prokaryotic transcription-translation-coupled system. The format is biochemical. Conditions: compound at 80µM. The protocol:
In order to deepen in the effect of Compound A on the PMM2 stability, degradation time courses were analyzed on WT protein and folding mutants with residual activity, p.Asp65Tyr, p.Arg162Trp and p.Thr237Met in presence of the compound. Additionally, we included in this assay the dimeric mutant p.Pro113Leu in order to study the effect of the compound on a mutant of this type.
Dimeric PMM2 used for thermal stability analysis was produced by the RTS 100 E. coli HY Kit transcription-translation-coupled system (5 PRIME, Hilden, Germany), following the manufacturer's recommendations. To produce PMM2 proteins, the reaction mix provided by the kit, together with 500 ng of the corresponding expression vector and 1 µl of the compound for reaching a final concentration of 40µM or 80µM or 1µl of DMSO. Reactions were incubated for 30 min at 30°C. The reaction was then stopped by adding 1 µl of DNase (1 mg/mL) and 1 µl of RNase (1 mg/mL). It was then further incubated at 37°C and 1.5 µl aliquots removed at different times. The compound was therefore present during the folding process. Proteins were immunodetected by Western blot and relative amounts of protein were determined by densitometry for the half-life determination.

Usually ΔTm stands for the shift of the melting midpoint relative to a reference. On to `O=C(Nc1cccc(Cl)c1)N(c1ccccn1)c1ccccn1` [Compound A, 3-(3-Chloro-phenyl)-1,1-di-pyridin-2-yl-urea], for which the thermal shift (ΔTm) at 80 µg/mL at WT-PMM2 is 1.1 °C. For the same molecule, the “half-life increase, ranking among protein/concentration combinations” value at p.Asp65Tyr is reported as “the one with the higher shift”.
